Assay results from patent publication US7183383B2, “Uses of collagen IV” (The University of Arkansas for Medical Sciences, priority 2002, dated 2007).

Columns and labels:
Assay type in all cases: cell-based, rabbit
[1] = system: renal proximal tubular cells; assay: Cell density (monolayer protein content) in DCVC-injured RPTC
Description: Rabbit renal proximal tubules were isolated using the iron oxide perfusion method and grown in 35-mm tissue culture dishes or 48-well cell culture clusters under improved conditions as previously described (35, 36). The cell culture medium was a 1:1 mixture of DMEM/Ham's F-12 (without D-glucose, phenol red, or sodium pyruvate) supplemented with 15 mM HEPES buffer, 2.5 mM L-glutamine, 1 μM pyridoxine HCl, 15 mM sodium bicarbonate, and 6 mM lactate. Hydrocortisone (50 nM), selenium (5 ng/ml), human transferrin (5 μg/ml), bovine insulin (10 nM), and L-ascorbic acid-2-phosphate (50 μM or 500 μM) were added to fresh culture medium immediately prior to daily media change. L-Ascorbic acid-2-phosphate (AscP) was used due to the fact that L-ascorbic acid is unstable in culture media. AscP is stable in culture media for ≧7 days at 37° C. and, after intracellular dephosphorylation, has the same effect on cultured cells as L-ascorbic acid (13).
Confluent monolayers of renal proximal tubular cells (day 6 after seeding) were exposed to 200 μM S-(1,2-dichlorovinyl)-L-cysteine (dissolved in water) for 1.75 hours followed by toxicant removal and addition of fresh culture media. This method produces approximately 50% cell death and loss 24 hours after the exposure. On days 1, 4, and 6 following S-(1,2-dichlorovinyl)-L-cysteine exposure, the ability of the remaining renal proximal tubular cells to regenerate and repair physiological function was monitored as described below. In some experiments, immediately after S-(1,2-dichlorovinyl)-L-cysteine exposure and after daily media change through day 6 after injury, collagen I (0, 5, 15, or 50 μg/ml), collagen IV (0, 5, 15, or 50 μg/ml), laminin (50 μg/ml), or cellular fibronectin (50 μg/ml) was added to the culture media of uninjured and S-(1,2-dichlorovinyl)-L-cysteine-injured renal proximal tubular cells grown in physiological concentrations of AscP. Exogenous collagens I and IV used in this study were triple helical and contained only α1 and α2 chains in conformations similar to those found in the renal basement membrane (3, 25). Laminin was a mixture of biologically active laminin chains found in most epithelial tissues (8, 50) and cellular fibronectin was composed of functional dimers (51).
Measurement of monolayer protein content over time was used to estimate cell density. On days 1, 4, and 6 after sublethal S-(1,2-dichlorovinyl)-L-cysteine injury, renal proximal tubular cell monolayers were washed with PBS and solubilized in Triton buffer (0.05% Triton X-100, 100 mM Tris-Base, 150 mM NaCl, pH 7.5). Samples were sonicated and protein concentrations determined using the method of Lowry (26) or the bicinchoninic acid microassay according to the manufacturer's instructions (Pierce, Rockford, Ill.).

[2] = system: renal proximal tubular cells; assay: Active Na^+ transport (ouabain-sensitive QO2); details: for decrease in active Na^+ transport: day 1 after DCVC injury, in presence of the agent; for active Na+ transport in uninjured RPTC: days 1 or 6
Description: Confluent monolayers of renal proximal tubular cells (day 6 after seeding) were exposed to 200 μM S-(1,2-dichlorovinyl)-L-cysteine (dissolved in water) for 1.75 hours followed by toxicant removal and addition of fresh culture media. This method produces approximately 50% cell death and loss 24 hours after the exposure. In some experiments, exogenous collagen IV (50 μg/ml), collagen I (50 μg/ml), or function-stimulating antibodies to collagen-binding integrin subunits α2 or β1 (5 μg/ml) was added daily to the culture media of S-(1,2-dichlorovinyl)-L-cysteine-injured renal proximal tubular cells cultured in the absence of pharmacological concentrations of L-ascorbic acid-2-phosphate. Function-stimulating antibodies to collagen-binding integrin α1 are not commercially available at this time. On days 1 and 6 following S-(1,2-dichlorovinyl)-L-cysteine exposure, active Na^+ transport or Na^+/K^+-ATPase activity, and collagen-binding integrin expression and/or localization in the remaining sublethally injured renal proximal tubular cells was determined as described below.
Renal proximal tubular cells were gently detached from culture dishes with a rubber policeman and transferred to a 37° C. oxygen consumption (QO2) chamber. QO2 in renal proximal tubular cells was measured polarographically in the absence (basal QO2) or presence of ouabain (100 μM) (ouabain-insensitive QO2) using a Clark-type electrode as described previously (Nowak and Schnellmann, 1995). Active Na^+ transport (ouabain-sensitive QO2) was calculated by subtracting ouabain-insensitive QO2 from basal QO2. Protein concentrations were determined using the bicinchoninic acid microassay according to the manufacturer's instructions (Pierce, Rockford, Ill.).

[3] = system: collagen-binding integrin subunits α1, α2, and β1; assay: Expression of collagen-binding integrins by flow cytometry; details: for expression of CBI subunits α1, α2, or β1 in sublethally injured RPTC: DCVC-injured RPTC; for expression of CBI subunits α1, α2, or β1 in sublethally injured RPTC / collagen-binding integrin α1, α2, and β1 expression in uninjured RPTC: AscP 500 μM or collagen IV 50 μg/ml
Description: CBI expression was measured by flow cytometry of renal proximal tubular cells immunostained with monoclonal antibodies to integrin subunits α1, α2, and β1. Renal proximal tubular cell monolayers were washed 3 times with ice-cold PBS, gently scraped from culture dishes into cell culture media containing 5% BSA (BSA/media), and transferred to microcentrifuge tubes. Renal proximal tubular cells were dissociated by pipeting, incubated on ice with moderate shaking for 20 minutes, centrifuged, and resuspended in 1% BSA/media containing 2 μg/ml of a specific anti-integrin antibody or non-specific IgG on ice with moderate shaking for 1 hour. After 3 washes with 1% BSA/media, renal proximal tubular cells were incubated for 30 minutes in the dark with a goat-anti mouse FITC-conjugated IgG diluted 1:100 in 1% BSA/media, followed by 3 washes with ice-cold PBS. Membrane expression of collagen-binding integrins was determined immediately by flow cytometry using a FACSCalibur four-color cell sorter/analyzer (Beckton Dickinson, San Jose, Calif.) with a blue argon laser for detection of FITC. Specific binding was calculated as total fluorescence minus that in IgG controls.

[4] = system: collagen-binding integrin subunits α1, α2, and β1; assay: Subcellular localization of CBIs by confocal microscopy; details: for CBIs on the apical membrane of injured RPTC: by day 6 after DCVC; for CBIs on the apical membrane of injured RPTC / basal localization of CBI subunits α1, α2, and β1 in injured RPTC: pharmacological AscP or exogenous collagen IV
Description: Collagen-binding integrin localization was determined using confocal microscopy of renal proximal tubular cell monolayers stained with monoclonal antibodies to integrin subunits α1, α2, and β1. Renal proximal tubular cell monolayers were washed 3 times with PBS and fixed with 10% buffered formalin (4% formaldehyde) for 20 minutes at room temperature. After 3 washes with PBS, monolayers were permeabilized in PTB buffer (PBS+0.3% Triton X-100+0.1% BSA) for 10 minutes at room temperature. Monolayers were washed 3 times with 0.1% BSA in PBS and incubated with 8% BSA in PBS for 30 minutes at room temperature. BSA (1%) in PBS containing 5 μg/ml of specific integrin antibodies or non-specific IgG was added to renal proximal tubular cell monolayers and incubated overnight a t 4° C. with moderate shaking. Following 3 washes with PTB buffer, monolayers were incubated for 2 hours in the dark at room temperature with 1% BSA in PBS containing a 1:100 dilution of a FITC-conjugated goat anti-mouse IgG. Monolayers were washed 3 times with PTB, and glass coverslips were applied after the addition of 2–3 drops of mounting media. Confocal microscopy was performed using a Zeiss confocal laser scanning microscope (Model 410, Carl Zeiss, Inc., Thornwood, N.Y.). Basal and apical membrane locations were determined visually in the Z-plane using light field microscopy. Two to three photomicrographs per monolayer at the basal and apical membranes were then scanned with an omnichrome laser filtered at 488 nm to detect FITC.

[5] = day 6, AscP 500 μM or collagen IV 50 μg/ml

For O=C1O[C@H]([C@@H](O)CO)C(O)=C1OP(=O)(O)O [L-ascorbic acid-2-phosphate, L-Ascorbic acid-2-phosphate], the monolayer protein content ([1]; 4 days after DCVC, 50 μM or 500 μM AscP) was “remained at day 1 levels”, the “monolayer protein content greater than that of DCVC-treated RPTC grown in 50 μM AscP” value ([1]; 6 days after DCVC, 500 μM AscP) was 34% and the “cell death and loss (decrease in monolayer protein content)” value ([1]; day 1 after DCVC, RPTC cultured in 500 μM AscP) was 55%. For the same compound, the “monolayer protein content, untreated RPTC, 50 μM vs 500 μM” value ([1]; uninjured RPTC, any time point) was “no significant differences”, the “decrease in active Na^+ transport” value [2] was “approximately 80%” and the “active Na^+ transport in DCVC-injured RPTC” value [2, 5] was “increase in active Na^+ transport”. For the same compound, the “active Na+ transport in uninjured RPTC” value [2] was “no effect”, the “expression of CBI subunits α1, α2, or β1 in sublethally injured RPTC” value [3] was “did not affect” and the “collagen-binding integrin α1, α2, and β1 expression in uninjured RPTC” value [3] was “did not affect”. The “CBIs on the apical membrane of injured RPTC” value [4] was “complete disappearance” and the “basal localization of CBI subunits α1, α2, and β1 in injured RPTC” value ([4]; day 6 after DCVC) was “return to control levels”.
For N[C@@H](CSC(Cl)=CCl)C(=O)O [S-(1,2-dichlorovinyl)-L-cysteine], the “cell death and loss” value ([1]; 200 μM for 1.75 hours, 24 hours after the exposure) was “approximately 50%”, the “decrease in monolayer protein content compared to control” value ([1]; day 1 after DCVC (200 μM), RPTC cultured in 50 μM AscP) was 56% and the “active Na^+ transport” value ([2]; day 1 following DCVC injury) was “marked inhibition”. The “active Na^+ transport” value ([2]; day 6 after DCVC injury) was “marked inhibition”, the “expression of CBI subunits α1, α2, and β1 compared to controls” value ([3]; day 1 after DCVC) was “unchanged” and the “expression of CBI subunits α1 and β1 compared to controls” value ([3]; day 6 after DCVC) was “unchanged”. The “apical membrane distribution of CBI subunits α1, α2, and β1” value ([4]; day 1 after DCVC injury) was “partially redistributed to the apical membrane”, the “CBI α1, α2, and β1 staining at the basal membrane” value ([4]; day 1 following DCVC) was “decreased compared to controls” and the “apical membrane distribution of CBIs” value ([4]; day 6 after DCVC injury) was “continued to exhibit CBI is distributed to the apical membrane”. For the same compound, the “basal localization of CBI subunits α1, α2, and β1” value ([4]; day 6 after DCVC, absence of pharmacological AscP or collagen IV) was “still decreased compared to sub-confluent controls”.
With “collagen IV: Human placenta collagen IV (Sigma); triple helical, containing only α1 and α2 chains” the “decrease in monolayer cell density” value ([1]; day 1 after DCVC injury, in presence of exogenous protein) was “approximately 50%”, the “monolayer protein content in injured RPTC” value ([1]; day 1 or day 6 after DCVC, 50 μg/ml) was “no change” and the “cell density as percent of that of uninjured RPTC” value ([1]; day 6 after DCVC injury, in presence of exogenous protein) was “approximately 50%”. For the same compound, the “monolayer cell density in untreated RPTC” value ([1]; uninjured RPTC, days 1 or 6, exogenous protein) was “no effect”, the “decrease in active Na^+ transport” value [2] was “approximately 80%” and the “active Na^+ transport in DCVC-injured RPTC” value [2, 5] was “increase in active Na^+ transport”. The “active Na^+ transport in DCVC-injured RPTC” value ([2]; day 6 after injury, 5, 15, 50 μg/ml) was “concentration-dependent improvement”, the “active Na+ transport in uninjured RPTC” value [2] was “no effect” and the “expression of CBI subunits α1, α2, or β1 in sublethally injured RPTC” value [3] was “did not affect”. The “collagen-binding integrin α1, α2, and β1 expression in uninjured RPTC” value [3] was “did not affect”, the “CBIs on the apical membrane of injured RPTC” value [4] was “complete disappearance” and the “basal localization of CBI subunits α1, α2, and β1 in injured RPTC” value ([4]; day 6 after DCVC) was “return to control levels”.
